Assay results published in paper PMC10299128, “The Parallel Structure–Activity Relationship Screening of Three Compounds Identifies the Common Agonist Pharmacophore of Pyrrolidine Bis-Cyclic Guanidine Melanocortin-3 Receptor (MC3R) Small-Molecule Ligands” (International Journal of Molecular Sciences, 2023).
Read-outs that look alike come from different tables or passages of the source.

Legend:
[1] = target: T1, mMC3R (Mus musculus, UniProt P33033); set-up: expressed in transfected cells; method as in PMID 33886285; conditions: β-galactosidase reporter gene assay; read-out: mMC3R agonist EC50 (previously reported); cited from earlier work
T1 sequence (P33033 whole entry): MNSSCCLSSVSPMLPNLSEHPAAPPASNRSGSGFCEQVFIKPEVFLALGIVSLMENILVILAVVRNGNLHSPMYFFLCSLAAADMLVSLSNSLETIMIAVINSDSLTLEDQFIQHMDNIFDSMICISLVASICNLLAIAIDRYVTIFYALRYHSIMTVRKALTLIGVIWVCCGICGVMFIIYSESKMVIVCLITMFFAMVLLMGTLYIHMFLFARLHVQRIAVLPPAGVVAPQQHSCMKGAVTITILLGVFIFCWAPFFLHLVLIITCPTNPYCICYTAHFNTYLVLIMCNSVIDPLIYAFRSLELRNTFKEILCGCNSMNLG

[2] = target: T2, mMC4R (Mus musculus, UniProt P56450); test: cell-based
T2 sequence (P56450 whole entry): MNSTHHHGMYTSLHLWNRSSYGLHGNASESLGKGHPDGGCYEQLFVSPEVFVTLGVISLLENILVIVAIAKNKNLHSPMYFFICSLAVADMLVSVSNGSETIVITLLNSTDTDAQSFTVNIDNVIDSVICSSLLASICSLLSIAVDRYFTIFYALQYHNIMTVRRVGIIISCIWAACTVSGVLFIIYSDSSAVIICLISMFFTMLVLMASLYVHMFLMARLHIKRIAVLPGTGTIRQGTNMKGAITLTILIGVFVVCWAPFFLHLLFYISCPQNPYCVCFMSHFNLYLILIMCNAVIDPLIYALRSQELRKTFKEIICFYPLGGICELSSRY

[3] = target: T1, mMC3R; test: AlphaScreen cAMP agonist assay, HEK293 cells stably expressing mMC3R
[4] = target: T3, mMC5R (Mus musculus, UniProt P41149); set-up: expressed in transfected cells; method as in PMID 33886285; conditions: β-galactosidase reporter gene assay; read-out: mMC5R agonist EC50 (previously reported); cited from earlier work
T3 sequence (P41149 whole entry): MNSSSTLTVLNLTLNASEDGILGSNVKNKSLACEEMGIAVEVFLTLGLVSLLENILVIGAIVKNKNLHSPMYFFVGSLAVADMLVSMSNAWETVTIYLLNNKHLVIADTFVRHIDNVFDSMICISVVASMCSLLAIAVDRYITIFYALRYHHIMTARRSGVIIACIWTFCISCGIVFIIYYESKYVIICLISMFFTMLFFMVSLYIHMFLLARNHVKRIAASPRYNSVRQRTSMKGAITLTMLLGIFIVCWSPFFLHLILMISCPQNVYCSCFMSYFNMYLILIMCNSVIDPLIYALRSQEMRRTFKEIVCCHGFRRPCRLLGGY

[5] = target: T4, mMC1R (Mus musculus, UniProt Q01727); test: AlphaScreen cAMP agonist assay, HEK293 cells stably expressing mMC1R
T4 sequence (Q01727 whole entry): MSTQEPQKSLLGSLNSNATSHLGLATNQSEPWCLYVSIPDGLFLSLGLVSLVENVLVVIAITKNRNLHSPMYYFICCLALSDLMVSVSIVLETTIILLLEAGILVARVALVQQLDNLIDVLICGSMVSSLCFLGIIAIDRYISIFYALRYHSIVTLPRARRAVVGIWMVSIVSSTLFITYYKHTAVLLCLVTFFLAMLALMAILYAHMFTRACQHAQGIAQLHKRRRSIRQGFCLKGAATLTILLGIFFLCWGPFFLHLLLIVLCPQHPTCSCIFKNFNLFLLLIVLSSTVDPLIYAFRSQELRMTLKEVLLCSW

[6] = target: T2, mMC4R; conditions: antagonist, Schild analysis with agonist NDP-MSH; mean ± SEM
[7] = target: T3, mMC5R; test: AlphaScreen cAMP agonist assay, HEK293 cells stably expressing mMC5R
[8] = target: T2, mMC4R; set-up: expressed in transfected cells; method as in PMID 33886285; conditions: with agonist MTII; cited from earlier work
[9] = target: T2, mMC4R; set-up: expressed in transfected cells; method as in PMID 33886285; conditions: cited from earlier work; for mMC4R partial stimulation, % activation (previously reported): at 10 µM
[10] = target: T4, mMC1R; set-up: expressed in transfected cells; method as in PMID 33886285; conditions: cited from earlier work
[11] = target: T2, mMC4R; test: AlphaScreen cAMP agonist assay, HEK293 cells stably expressing mMC4R; conditions: for mMC4R partial agonist efficacy bin: sigmoidal curve, efficacy <90% of NDP-MSH
[12] = tested on: MC5R; set-up: method as in PMID 21215742; conditions: read-out: MC5R antagonist IC50; cited from earlier work
[13] = tested on: MC1R; set-up: method as in PMID 21215742; conditions: read-out: MC1R antagonist IC50; cited from earlier work
[14] = target: mouse melanocortin-5 receptor (mouse) (UniProt P41149)
mouse melanocortin-5 receptor (mouse), sequence (P41149 whole entry): as the sequence (P41149 whole entry) above

[15] = target: mouse melanocortin-3 receptor (mouse) (UniProt P33033)
mouse melanocortin-3 receptor (mouse), sequence (P33033 whole entry): as the sequence (P33033 whole entry) above

[16] = target: mouse melanocortin-1 receptor (mouse) (UniProt Q01727)
mouse melanocortin-1 receptor (mouse), sequence (Q01727 whole entry): as the sequence (Q01727 whole entry) above

Row | Molecule | Kb [2] [nM] | EC50 [3] [nM] | EC50 [5] [nM] | mMC4R pA2 [6] | EC50 [7] [nM] | EC50 [11] [nM] | mMC4R partial agonist efficacy bin [11] | EC50 [1] [nM] | EC50 [4] [nM] | mMC4R antagonist pA2 (previously reported) [8] | mMC4R partial stimulation, % activation (previously reported) [9] | other results
1 | CC(C)CC1CNC(=N)N1CC1CCCN1CC(Cc1ccccc1)N1CC(C(C)O)N(CC2CCC(C(C)(C)C)CC2)C1=N (stereo not shown) [Compound 2718.001] | 1000 | 270 ± 20 | 320 ± 30 | 6.0 | 260 ± 30 |  |  | 310 | 530 | 7.0 | 10–50% | mMC1R partial stimulation, % efficacy (previously reported) ([10]; at 10 µM): 58%
2 | CC(C)CC1CNC(=N)N1CC1CCCN1CC(CC1CCCCC1)N1CC(C(C)O)N(CC2CCC(C(C)(C)C)CC2)C1=N (stereo not shown) [Compound 2718.002] | 631 | 240 ± 8 | 270 ± 20 | 6.2 | 290 ± 10 | 1200 ± 300 | A (A (20–50% receptor activation)) | 210 | 140 | 5.8 |  | EC50 ([9]; partial agonist, read-out: mMC4R partial agonist EC50 (previously reported)): 270 nM; mMC4R partial agonist efficacy, % MTII signal (previously reported) ([9]; relative to MTII): 45%; EC50 ([10]; β-galactosidase reporter gene assay, read-out: mMC1R agonist EC50 (previously reported)): 300 nM
3 | COc1ccccc1-c1nc(=Nc2ccccc2)sn1-c1ccccc1OC [JNJ-10229570] |  |  |  |  |  |  |  |  |  |  |  | IC50 [12]: 200 to 300 nM; IC50 [13]: 200 to 300 nM
4 | NDP-MSH (peptide) |  |  |  |  |  |  |  |  |  |  |  | EC50 of agonist activity, AlphaScreen cAMP assay, HEK293 cells stably expressing mMC5R [14]: 0.1 nM; EC50 of agonist activity, AlphaScreen cAMP assay, HEK293 cells stably expressing mMC3R [15]: 0.069 nM; EC50 of agonist activity, AlphaScreen cAMP assay, HEK293 cells stably expressing mMC1R [16]: 0.055 nM

Second part, led by results:

Row | Kb [2] [nM] | EC50 [3] [nM] | EC50 [5] [nM] | mMC4R pA2 [6] | EC50 [7] [nM] | EC50 [11] [nM] | mMC4R partial agonist efficacy bin [11] | Molecule | EC50 [1] [nM] | EC50 [4] [nM] | mMC4R antagonist pA2 (previously reported) [8] | mMC4R partial stimulation, % activation (previously reported) [9] | other results
5 | 1260 | 2000 ± 300 | 640 ± 30 | 5.9 | 1200 ± 200 | 2500 ± 600 | A (A (20–50% receptor activation)) | CCCC1CN(C(CC2CCCCC2)CN2CCCC2CN2C(=N)NCC2C(C)C)C(=N)N1CC1CCC(C(C)(C)C)CC1 (stereo not shown) [Compound 2718.003] | 350 | 540 | 5.8 | 50% | fold decreased mMC3R potency between the previous reported values and the present study ([3]; AlphaScreen (present) vs previously reported value [29]): 6 fold; mMC1R partial stimulation (previously reported) ([10]; at 100 µM): 50–90%
6 | 1580 | 3300 ± 100 | 1100 ± 300 | 5.8 | 1300 ± 100 | 2900 ± 400 | B (B (51–90% receptor activation)) | CCC[C@@H]1CN([C@H](CC2CCCCC2)CN2CCC[C@H]2CN2CCNC2=N)C(=N)N1CC1CCC(C(C)(C)C)CC1 (stereo partly shown) [Compound 2718.029] |  |  |  |  | mMC3R agonist efficacy (in words) ([3]; relative to NDP-MSH, full = >90% receptor activation): full agonist efficacy
